Structures are written as SMILES.

The assay relates to Biomphalaria glabrata. As to the kind of experiment: Molluscicidal activity against Biomphalaria glabrata assessed as minimum concentration required to cause mortality measured after 24 hrs. It counts as functional.

As for `CC1(C)CC[C@]2(C(=O)O)CC[C@]3(C)C(=CC[C@@H]4[C@@]5(C)CC[C@H](O[C@@H]6O[C@H](C(=O)O)[C@@H](O)[C@H](O)[C@H]6O)C(C)(C)[C@@H]5CC[C@]43C)[C@@H]2C1`, the Activity worked out at 2 ppm.
Take `C[C@@H]1O[C@@H](O[C@@H]2[C@@H](O)[C@H](O[C@H]3CC[C@]4(C)[C@H]5CC=C6[C@@H]7CC(C)(C)CC[C@]7(C(=O)O)CC[C@@]6(C)[C@]5(C)CC[C@H]4C3(C)C)O[C@H](C(=O)O)[C@H]2O)[C@H](O)[C@H](O)[C@H]1O`: the Activity is given as 4 ppm.
Next, `CC1(C)CC[C@]2(C(=O)O)CC[C@]3(C)C(=CC[C@@H]4[C@@]5(C)CC[C@H](O[C@@H]6O[C@H](C(=O)O)[C@@H](O)[C@H](O[C@@H]7OC[C@@H](O)[C@H](O)[C@H]7O)[C@H]6O)C(C)(C)[C@@H]5CC[C@]43C)[C@@H]2C1`: 4 ppm.
Turning to `CC1(C)CC[C@]2(C(=O)O)CC[C@]3(C)C(=CC[C@@H]4[C@@]5(C)CC[C@H](O[C@@H]6OC[C@@H](O)[C@H](O)[C@H]6O)C(C)(C)[C@@H]5CC[C@]43C)[C@@H]2C1`, the Activity is over 16 ppm.
For the compound `CC1(C)CC[C@]2(C(=O)O)CC[C@]3(C)C(=CC[C@@H]4[C@@]5(C)CC[C@H](O)C(C)(C)[C@@H]5CC[C@]43C)[C@@H]2C1` [OLEANOLIC_ACID], the Activity came to 0 ppm.

The record behind these values is ChEMBL document CHEMBL1158286, “Molluscicidal Triterpenoid Glycosides of Dialium guineense” (1996).
